The results in this text go back to patent publication US11918582B2 (RAPT Therapeutics, Inc., priority 2021, dated 2024).

Each structure is given as a SMILES string. Counter-ions that a name gives are not always drawn. A value given as a limit tells only on which side of the number the result lay.

This assay has as its target T1, human HPK1 (MAP4K1) (Homo sapiens, UniProt Q92918).
T1 construct: Recombinant human HPK1 kinase domain was obtained from ThermoFisher (Cat. #PV6357) and SignalChem (Cat. #M23-11G); purchased ThermoFisher; SignalChem PV6357; M23-11G
T1 sequence (Q92918 17-274 limits assumed): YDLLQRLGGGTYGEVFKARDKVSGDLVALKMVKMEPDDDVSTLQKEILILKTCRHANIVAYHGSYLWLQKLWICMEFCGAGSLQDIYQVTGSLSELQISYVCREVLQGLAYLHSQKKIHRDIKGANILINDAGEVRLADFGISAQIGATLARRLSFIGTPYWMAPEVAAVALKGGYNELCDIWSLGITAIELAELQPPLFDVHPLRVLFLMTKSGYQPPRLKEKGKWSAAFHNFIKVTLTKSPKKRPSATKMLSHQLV
The assay is described as follows: Biochemical assay for activity against HPK1 (ADP-Glo, MBP substrate). The conditions noted are these: recombinant human HPK1 kinase domain, 1 nM enzyme, ADP-Glo luminescence. Summed up:
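Recombinant human HPK1 kinase domain (1 nM solution) preincubated 15 min at room temperature with compounds in pH 7.5 HEPES buffer with NaCl, TCEP, MgCl2, Tween-20, BSA. MBP substrate with ATP added, reaction run 2 h at room temperature. ADP formation read by ADP-Glo luminescence to give IC50.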
In general terms: ADP-Glo first removes unused ATP, then detects ADP through luciferase.

The term IC50 denotes the concentration at which inhibition is half-maximal.

As to `COc1cc2c(cc1Nc1ncc3cnn([C@H]4CC[C@@H](O)CC4)c3n1)CN(C)CC2` [Example 39, (1s,4s)-4-(6-((6-methoxy-2-methyl-1,2,3,4-tetrahydroisoquinolin-7-yl)amino)-1H-pyrazolo[3,4-d]pyrimidin-1-yl)cyclohexan-1-ol], the half-inhibitory concentration (IC50) was less than 100 nM. On to `Cc1nn(C2COC2)c2nc(Nc3ccc4c(c3)CN(C)CC4)ncc12` [Example 2, 2-methyl-N-[3-methyl-1-(oxetan-3-yl)pyrazolo[3,4-d]pyrimidin-6-yl]-3,4-dihydro-1H-isoquinolin-7-amine], for which the IC50 was less than 100 nM. The figure for `COc1cc2c(cc1Nc1ncc3cnn(C[C@@H]4CCCN4C(=O)CO)c3n1)CN(C)CC2` [Example 114, (S)-2-hydroxy-1-(2-((6-((6-methoxy-2-methyl-1,2,3,4-tetrahydroisoquinolin-7-yl)amino)-1H-pyrazolo[3,4-d]pyrimidin-1-yl)methyl)230yrrolidine-1-yl)ethan-1-one 2,2,2-trifluoroacetate] is less than 100 nM. The figure for `COc1cc2c(cc1Nc1ncc3cnn(C[C@@H]4CCCN4C(C)=O)c3n1)CN(C(C)C)CC2` [Example 196, (S)-1-(2-((6-((2-isopropyl-6-methoxy-1,2,3,4-tetrahydroisoquinolin-7-yl)amino)-1H-pyrazolo[3,4-d]pyrimidin-1-yl)methyl)pyrrolidin-1-yl)ethan-1-one hydrochloride] is less than 100 nM; for `COc1cc2c(cc1Nc1ncc3cnn([C@H]4CC[C@H](O)CC4)c3n1)CN(C)CC2` [Example 49, trans-4-(6-((6-methoxy-2-methyl-1,2,3,4-tetrahydroisoquinolin-7-yl)amino)-1H-pyrazolo[3,4-d]pyrimidin-1-yl)cyclohexan-1-ol] it is less than 100 nM.

Turning to `COc1cc2c(cc1Nc1ncc3cnn([C@H]4CC[C@H](O)CC4)c3n1)CN(CCO)CC2` [Example 156, trans-4-(6-((2-(2-hydroxyethyl)-6-methoxy-1,2,3,4-tetrahydroisoquinolin-7-yl)amino)-1H-pyrazolo[3,4-d]pyrimidin-1-yl)cyclohexan-1-ol], the IC50 is less than 100 nM. The figure for `COC(=O)N[C@H]1CC[C@H](n2ncc3cnc(Nc4cc5c(cc4OC)CCN(C)C5)nc32)CC1` [Example 80, trans-methyl N-[4-[6-[(6-methoxy-2-methyl-3,4-dihydro-1H-isoquinolin-7-yl)amino]pyrazolo[3,4-d]pyrimidin-1-yl]cyclohexyl]carbamate] is less than 100 nM; for `COc1cc2c(cc1Nc1ncc3cnn([C@H]4CCC[C@H](C(N)=O)C4)c3n1)CN(C)CC2` (racemic) [Example 29, rac-(1S,3S)-3-(6-((6-methoxy-2-methyl-1,2,3,4-tetrahydroisoquinolin-7-yl)amino)-1H-pyrazolo[3,4-d]pyrimidin-1-yl)cyclohexane-1-carboxamide] it is less than 100 nM. The figure for `COc1cc2c(cc1Nc1ncc3cnn([C@@H](C)CCO)c3n1)CN(C)CC2` [Example 100] is less than 100 nM; for `CNC(=O)[C@H]1CC[C@@H](n2nc(C)c3cnc(Nc4cc5c(cc4OC)CCN(C)C5)nc32)CC1` [Example 52, (cis)-4-(6-((6-methoxy-2-methyl-1,2,3,4-tetrahydroisoquinolin-7-yl)amino)-3-methyl-1H-pyrazolo[3,4-d]pyrimidin-1-yl)-N-methylcyclohexane-1-carboxamide] it is less than 100 nM.

For the compound `COc1cc2c(cc1Nc1ncc3cnn(C[C@H]4C[C@@H](NC(C)=O)C4)c3n1)CN(C)CC2` [Example 119, cis N-(3-((6-((6-methoxy-2-methyl-1,2,3,4-tetrahydroisoquinolin-7-yl)amino)-1H-pyrazolo[3,4-d]pyrimidin-1-yl)methyl)cyclobutyl)acetamide], the half-maximal inhibitory concentration (IC50) was less than 100 nM.

As to `CN1CCc2ccc(Nc3ncc4cnn(C56CC7CC(CC(C7)C5)C6)c4n3)cc2C1` [Example 103, N-(1-((3s,5s,7s)-adamantan-1-yl)-1H-pyrazolo[3,4-d]pyrimidin-6-yl)-2-methyl-1,2,3,4-tetrahydroisoquinolin-7-amine], the IC50 was less than 100 nM. The figure for `COc1cc2c(cc1Nc1ncc3cnn([C@H]4CC[C@@H](CO)CC4)c3n1)CN(C)CC2` [Example 67, cis-[4-[6-[(6-methoxy-2-methyl-3,4-dihydro-1H-isoquinolin-7-yl)amino]pyrazolo[3,4-d]pyrimidin-1-yl]cyclohexyl]methanol] is less than 100 nM. With `COc1cc2c(cc1Nc1ncc3cnn([C@H]4CCC[C@H](CO)C4)c3n1)CN(C)CC2` [Example 63, ((1S,3S)-3-(6-((6-methoxy-2-methyl-1,2,3,4-tetrahydroisoquinolin-7-yl)amino)-1H-pyrazolo[3,4-d]pyrimidin-1-yl)cyclohexyl)methanol hydrochloride], the IC50 is less than 100 nM. For `COc1cc2c(cc1Nc1ncc3c(C)nn([C@@H]4CCC[C@@H](C(N)=O)C4)c3n1)CN(C)CC2` [Example 56, (1R,3R)-3-(6-((6-methoxy-2-methyl-1,2,3,4-tetrahydroisoquinolin-7-yl)amino)-3-methyl-1H-pyrazolo[3,4-d]pyrimidin-1-yl)cyclohexane-1-carboxamide] the value was less than 100 nM. `COc1cc2c(cc1Nc1ncc3cnn([C@H]4C[C@](C)(CO)C4)c3n1)CN(C)CC2` [Example 76, trans-[3-[6-[(6-methoxy-2-methyl-3,4-dihydro-1H-isoquinolin-7-yl)amino]pyrazolo[3,4-d]pyrimidin-1-yl]-1-methyl-cyclobutyl]methanol]: the IC50 was less than 100 nM. As to `COc1cc2c(cc1Nc1ncc3cnn(C[C@@H]4C[C@H](F)CN4C(C)=O)c3n1)CN(C)CC2` [Example 146, 1-[(2S,4S)-4-fluoro-2-[[6-[(6-methoxy-2-methyl-3,4-dihydro-1H-isoquinolin-7-yl)amino]pyrazolo[3,4-d]pyrimidin-1-yl]methyl]pyrrolidin-1-yl]ethan-1-one], the IC50 is less than 100 nM. As to `COc1cc2c(cc1Nc1ncc3cnn(C[C@H]4CCCN(C(C)=O)C4)c3n1)CN(C)CC2` [Example 142, I-[(3S)-3-[[6-[(6-methoxy-2-methyl-3,4-dihydro-1H-isoquinolin-7-yl)amino]pyrazolo[3,4-d]pyrimidin-1-yl]methyl]-1-piperidyl]ethan-1-one], the half-maximal inhibitory concentration (IC50) is less than 100 nM.

As to `COc1cc2c(cc1Nc1ncc3cnn(CC4(F)CC4)c3n1)CN(C)CC2` [Example 204, N-(1-((1-fluorocyclopropyl)methyl)-1H-pyrazolo[3,4-d]pyrimidin-6-yl)-6-methoxy-2-methyl-1,2,3,4-tetrahydroisoquinolin-7-amine], the IC50 was less than 100 nM.

As to `COc1cc2c(cc1Nc1ncc3cnn([C@H]4CCN(C(C)=O)C[C@H]4C)c3n1)CN(C)CC2` [Example 210, 1-((3R,4S)-4-(6-((6-methoxy-2-methyl-1,2,3,4-tetrahydroisoquinolin-7-yl)amino)-1H-pyrazolo[3,4-d]pyrimidin-1-yl)-3-methylpiperidin-1-yl)ethan-1-one], the half-maximal inhibitory concentration (IC50) was less than 100 nM. The figure for `COc1cc2c(cc1Nc1ncc3cnn(C[C@@H]4CC[C@@H](O)CN4C(C)=O)c3n1)CN(C)CC2` [Example 225, 1-((2S,5R)-5-hydroxy-2-((6-((6-methoxy-2-methyl-1,2,3,4-tetrahydroisoquinolin-7-yl)amino)-1H-pyrazolo[3,4-d]pyrimidin-1-yl)methyl)piperidin-1-yl)ethan-1-one] is less than 100 nM.

`CN1CCc2ccc(Nc3ncc4cnn(C[C@@H]5CCC[C@H]5C(=O)O)c4n3)cc2C1` (racemic) [Example 161, Rac-trans-2-[[6-[(2-methyl-3,4-dihydro-1H-isoquinolin-7-yl)amino]pyrazolo[3,4-d]pyrimidin-1-yl]methyl]cyclopentanecarboxylic Acid]: the IC50 was less than 100 nM. As to `COc1cc2c(cc1Nc1ncc3cnn(C[C@H]4[C@H](C)CCN4C(C)=O)c3n1)CN(C)CC2` (single isomer, unassigned) [Example 147], the IC50 fell in the range of 100 to 250 nM. The figure for `COc1cc2c(cc1Nc1ncc3cnn(C[C@@H]4C[C@@H]4C(=O)O)c3n1)CN(C)CC2` (racemic) [Example 188, (cis)-2-((6-((6-methoxy-2-methyl-1,2,3,4-tetrahydroisoquinolin-7-yl)amino)-1H-pyrazolo[3,4-d]pyrimidin-1-yl)methyl)cyclopropane-1-carboxylic Acid] is less than 100 nM; for `CN1CCc2ccc(Nc3ncc4cnn([C@H]5CCCNC5)c4n3)cc2C1` [Example 17, (S)-2-methyl-N-(1-(piperidin-3-yl)-1H-pyrazolo[3,4-d]pyrimidin-6-yl)-1,2,3,4-tetrahydroisoquinolin-7-amine hydrochloride] it is less than 100 nM; for `COc1cc2c(cc1Nc1ncc3cnn(C[C@@H]4CCN4C(C)=O)c3n1)CN(C)CC2` [Example 133, (S)-1-(2-((6-((6-methoxy-2-methyl-1,2,3,4-tetrahydroisoquinolin-7-yl)amino)-1H-pyrazolo[3,4-d]pyrimidin-1-yl)methyl)azetidin-1-yl)ethan-1-one] it is 100 to 250 nM.

`COc1cc2c(cc1Nc1ncc3cnn([C@H]4CC[C@H](CO)CC4)c3n1)CN(CCO)CC2` [Example 167, 2-[7-[[1-[4-(hydroxymethyl)cyclohexyl]pyrazolo[3,4-d]pyrimidin-6-yl]amino]-6-methoxy-3,4-dihydro-1H-isoquinolin-2-yl]ethanol]: the IC50 is less than 100 nM. The figure for `COc1nc2c(cc1Nc1ncc3cnn(C[C@@H]4CCCN4C(C)=O)c3n1)CN(C)CC2` [Example 198] is less than 100 nM.
